Article PMC7504360 (International Journal of Molecular Sciences, 2020)
Square brackets hold non-standard residues; d marks the D form. Peptide text beside a SMILES is read from it.

How the values were obtained:
trypsin = experiment: Protease stability assay (antimicrobial activity after protease digestion); format: in vitro ADME; settings: peptide–enzyme 10,000:1, PBS, 6 h at 37 °C preincubation, then E. coli and A. baumannii, 16 h at 37 °C, 600 nm, repeated three times
Protocol: (§1) For stability analysis, all Pro-peptides at their MICs were incubated with trypsin and chymotrypsin at the ratio of 10,000:1 (peptide–enzyme) in PBS for 6 h at 37 °C. After incubation, 100 μL of peptide-protease mixture was added to the 100 μL bacterial suspension (E. coli and A. baumannii, 2 × 10^5 CFU/mL) and further incubated for 16 h at 37 °C. Melittin was used as standard peptide, and bacterial suspension without peptide and protease served as control. The experiment was repeated three times, and the extent of bacterial growth was measured at 600 nm using a microplate reader.

chymotrypsin = experiment: as above; format: in vitro ADME; settings: peptide–enzyme 10,000:1, PBS, 6 h at 37 °C preincubation, then E. coli and A. baumannii, 16 h at 37 °C, 600 nm, repeated three times
Protocol: as §1

Calcein leakage assay = settings: 4 µM peptide, 3 min after peptide exposure, EYPE/EYPG (7:3, w/w) LUVs, pH 7.4, fluorescence ex 490/em 520 nm; triplicate
Protocol: We investigated the modes of action of the peptides by measuring their abilities to permeate model phospholipid membranes and Escherichia coli. The membrane-permeabilizing ability of the peptides was measured by monitoring the release of fluorescent calcein from liposomes of various compositions. We employed negatively-charged large unilamellar vesicles (LUVs) composed of 7:3 (w/w) egg yolk L-α-phosphatidylethanolamine (EYPE)/egg yolk L-α-phosphatidylglycerol (EYPG) to mimic gram-negative bacterial cells. The percentage of calcein leakage 3 min after peptide exposure was used to assess its ability to permeate the membrane. […] All Pro-peptides induced significant dye release against the negatively charged EYPE/EYPG LUVs, implying that they potently permeate bacterial cell component membranes. […]
Calcein-entrapped LUVs composed of egg yolk phosphatidylethanolamine (EYPE)/egg yolk phosphatidylglycerol EYPG (7:3, w/w) were prepared by vortexing the dried lipid in dye buffer solution (70 mM calcein, 10 mM Tris, 150 mM NaCl, and 0.1 mM Ethylenediaminetetraacetic acid (EDTA), pH 7.4) as described previously. The leakage of calcein from the LUVs was monitored by measuring fluorescence intensity at an excitation wavelength of 490 nm and an emission wavelength of 520 nm on a model RF-5301PC spectrophotometer (Shimadzu, Kyoto, Japan). […]

MAPK and NF-κB = experiment: Immunoblot of MAPK (JNK, ERK) phosphorylation and NF-κB nuclear translocation; format: cell-based, mouse; settings: 20 μM peptide, LPS 50 ng/mL, RAW264.7 cells
Protocol: The protein content of all experimental groups of RAW264.7 cells in triplicate were extracted using radio immunoprecipitation buffer (RIPA) containing protease phosphatase inhibitor. The supernatant was collected by centrifugation (12,000× g) at 4 °C for 20 min and stored at −80 °C until further use. Similarly, cytoplasmic and nuclear fractionation was extracted using an NE-PER Nuclear and Cytoplasmic Extraction Reagents kit (ThermoFisher Scientific, MA, USA), according to the manufacturer’s protocol. Protein contents were quantified using a bicinchoninic acid (BCA) protein assay kit (Thermo Fisher Scientific Inc., MA, USA) and 30 μg (v/v) was electrophoresed by SDS-PAGE using a 10% (w/v) polyacrylamide resolving gel, electro-transferred to a PVDF membrane, and then blocked using 5% (w/v) non-fat milk. The membranes were incubated with primary antibodies (1:1000 dilution) at 4 °C overnight, followed by incubation with their respective secondary antibody for 1 h at room temperature. The antigen-antibody complexes were examined using the WestGlow^TM Chemiluminescent Substrate (Biomax Co., Ltd, Seoul, South Korea) under iBright™ CL1000 Imaging System (Thermo Fisher Scientific Inc., MA, USA). The densitometric analysis of protein signals were quantified using the Image J software (Version 1.52, National Institutes of Health, MD, USA).

[1] = system: LPS-stimulated RAW264.7 cells; experiment: Nitrite (NO) production, Griess assay; format: cell-based, mouse; settings: 25 μM, 1 h pretreatment, LPS 20 ng/mL for 16 h
Protocol: (§2) The presence of nitrite in culture media strongly validates the indication of NO production which was assessed by Griess assay. Briefly, RAW264.7 cell (1 × 10^5) were seeded in s 96-well plate in triplicate. Peptides (1, 5, 25, and 50 μM) were pretreated 1 h and then stimulated with 20 ng/mL of LPS purified from E. coli O111:B4 (Sigma-Aldrich, St. Louis, MO, USA) for 16 h. After incubation, equal volumes of culture media and Griess reagent were added and color change was read at 540 nm. The concentration of nitrite content was assessed using a standard curve of sodium nitrite. In addition, release of inflammatory cytokines including TNF-α and IL-6 in the culture media was quantified using an enzyme-linked immunosorbent assays kit (ELISA; R&D Systems, Minneapolis, MN, USA) and the assay was performed according to the kit protocol. The assay was conducted in triplicate, and the concentrations of TNF-α and IL-6 were evaluated by measuring the absorbance at 450 nm using a microplate reader.

[2] = system: LPS-stimulated RAW264.7 cells; experiment: IL-6 release, ELISA; format: cell-based, mouse; settings: 25 μM, 1 h pretreatment, LPS 20 ng/mL for 16 h
Protocol: as §2

[3] = system: sheep red blood cells (sRBCs); experiment: Hemolytic activity; format: cell-based; settings: 100 μM peptide, 4% (v/v) sRBCs in PBS, 1 h at 37 °C, absorbance 405 nm; three measurements averaged
Protocol: The hemolytic activity of all Pro-peptides were tested against sheep red blood cells (sRBCs) as described in previous reports. Fresh sRBCs were washed three times with phosphate-buffered saline (PBS) followed by centrifugation for 5 min at 2500 rpm at 4 °C. Peptides (0.2 to 100 μM) in PBS were incubated with 4% (v/v) sRBCs for 1 h at 37 °C. The contents were then centrifuged for 5 min at 1000 × g. The absorbance of the supernatant at 405 nm was used as a measure of hemolysis, and three times independent measurements were averaged. As a control, 100% hemolysis was obtained by treating sRBCs with melittin.

Structure (SMILES): CC[C@@H](C)[C@@H](NC(=O)[C@@H](C)NC(=O)[C@@H](CC(C)C)NC(=O)[C@@H](Cc1c[nH]c2ccccc12)NC(=O)[C@@H](CC(C)C)NC(=O)[C@@H](CCCNC(=N)N)NC(=O)[C@H](N)CCCNC(=N)N)C(=O)N[C@H](Cc1c[nH]c2ccccc12)C(=O)N[C@H](CCCNC(=N)N)C(=O)N[C@H](CCCNC(=N)N)C(N)=O [Pro10-1D] (H-[dR][dR][dL][dW][dL][dA][dI][dW][dR][dR]-NH2; N-terminus assumed)
- protease resistance (retention of bactericidal activity) (trypsin): substantial protease resistance
- protease resistance (retention of bactericidal activity) (trypsin; listed as enantiomeric Pro10-1): retained its bactericidal activity
- protease resistance (retention of bactericidal activity) (chymotrypsin): substantial protease resistance
- protease resistance (retention of bactericidal activity) (chymotrypsin; listed as enantiomeric Pro10-1): retained its bactericidal activity
- calcein leakage (Calcein leakage assay): more than 80%
- MAPK and NF-κB proteins (MAPK and NF-κB): downregulated
- inhibition of LPS-induced NO (nitrite) level [1]: effective inhibition
- inhibition of LPS-induced IL-6 level [2]: effective inhibition
- hemolysis [3]: no hemolytic activity
